# ChEMBL document CHEMBL1909576, “Continued exploration of biphenylsulfonamide scaffold as a platform for aggrecanase-1 inhibition” (Bioorg Med Chem Lett, 2011)
# Key:
# [1] = target: T1, A disintegrin and metalloproteinase with thrombospondin motifs 4 (Homo sapiens, UniProt O75173); test: Inhibition of aggrecanase-1
# T1 sequence (O75173 whole entry): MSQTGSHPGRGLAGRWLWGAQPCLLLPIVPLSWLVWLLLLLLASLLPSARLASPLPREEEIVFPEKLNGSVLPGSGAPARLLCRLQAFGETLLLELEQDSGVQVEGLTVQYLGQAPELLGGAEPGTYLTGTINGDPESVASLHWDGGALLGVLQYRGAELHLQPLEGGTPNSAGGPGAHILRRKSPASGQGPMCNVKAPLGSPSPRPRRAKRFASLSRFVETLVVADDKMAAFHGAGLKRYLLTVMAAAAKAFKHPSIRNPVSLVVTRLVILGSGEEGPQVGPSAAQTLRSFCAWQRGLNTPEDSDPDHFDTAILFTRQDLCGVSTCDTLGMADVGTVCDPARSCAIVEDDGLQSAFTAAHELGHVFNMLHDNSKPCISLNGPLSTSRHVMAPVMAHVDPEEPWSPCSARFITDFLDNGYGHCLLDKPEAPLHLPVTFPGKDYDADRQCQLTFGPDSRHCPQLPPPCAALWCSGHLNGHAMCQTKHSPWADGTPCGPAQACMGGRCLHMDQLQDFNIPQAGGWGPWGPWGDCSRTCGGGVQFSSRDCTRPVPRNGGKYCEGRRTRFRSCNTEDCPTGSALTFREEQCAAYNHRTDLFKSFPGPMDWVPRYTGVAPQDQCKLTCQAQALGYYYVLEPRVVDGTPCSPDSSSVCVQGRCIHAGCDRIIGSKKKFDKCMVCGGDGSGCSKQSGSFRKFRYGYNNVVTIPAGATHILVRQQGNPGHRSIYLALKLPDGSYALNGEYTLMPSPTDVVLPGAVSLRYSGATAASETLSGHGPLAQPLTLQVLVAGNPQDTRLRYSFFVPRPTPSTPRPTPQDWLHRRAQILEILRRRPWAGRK
# [2] = target: Collagenase 3 (Homo sapiens, UniProt P45452); test: Inhibition of MMP13
# [3] = target: T2, A disintegrin and metalloproteinase with thrombospondin motifs 5 (Homo sapiens, UniProt Q9UNA0); test: Inhibition of aggrecanase-2
# T2 sequence (Q9UNA0 whole entry): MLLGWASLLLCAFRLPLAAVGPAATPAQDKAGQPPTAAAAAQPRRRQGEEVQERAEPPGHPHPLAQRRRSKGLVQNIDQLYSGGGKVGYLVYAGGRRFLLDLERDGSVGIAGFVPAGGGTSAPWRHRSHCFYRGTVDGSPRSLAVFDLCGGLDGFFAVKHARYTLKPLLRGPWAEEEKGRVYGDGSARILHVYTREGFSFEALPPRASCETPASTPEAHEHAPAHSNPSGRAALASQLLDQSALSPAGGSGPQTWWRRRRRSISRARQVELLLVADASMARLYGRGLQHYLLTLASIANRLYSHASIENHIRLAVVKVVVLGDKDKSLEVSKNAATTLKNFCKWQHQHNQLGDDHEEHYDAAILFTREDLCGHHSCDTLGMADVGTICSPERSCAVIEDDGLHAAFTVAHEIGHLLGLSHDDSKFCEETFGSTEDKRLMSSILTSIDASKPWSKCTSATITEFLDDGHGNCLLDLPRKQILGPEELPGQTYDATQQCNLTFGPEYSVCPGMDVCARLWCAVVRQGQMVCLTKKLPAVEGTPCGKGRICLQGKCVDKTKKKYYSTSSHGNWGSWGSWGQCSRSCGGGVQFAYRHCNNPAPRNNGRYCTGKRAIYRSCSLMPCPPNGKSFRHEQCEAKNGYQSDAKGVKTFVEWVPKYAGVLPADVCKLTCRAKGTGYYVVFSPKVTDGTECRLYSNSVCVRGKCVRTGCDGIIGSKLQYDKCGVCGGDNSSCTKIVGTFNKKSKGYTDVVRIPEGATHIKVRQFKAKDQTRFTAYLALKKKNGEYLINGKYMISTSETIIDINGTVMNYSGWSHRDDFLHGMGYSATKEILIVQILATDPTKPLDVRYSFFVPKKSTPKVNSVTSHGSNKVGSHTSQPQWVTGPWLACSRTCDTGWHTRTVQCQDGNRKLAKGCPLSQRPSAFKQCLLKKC
# [4] = target: T3, A disintegrin and metalloproteinase with thrombospondin motifs 4 (Bos taurus) (UniProt Q9TT93); test: Inhibition of aggrecanase 1 in bovine cartilage explant assessed as inhibition of IL1-stimulated proteoglycan degradation at 10 ug/ml
# T3 sequence (whole entry): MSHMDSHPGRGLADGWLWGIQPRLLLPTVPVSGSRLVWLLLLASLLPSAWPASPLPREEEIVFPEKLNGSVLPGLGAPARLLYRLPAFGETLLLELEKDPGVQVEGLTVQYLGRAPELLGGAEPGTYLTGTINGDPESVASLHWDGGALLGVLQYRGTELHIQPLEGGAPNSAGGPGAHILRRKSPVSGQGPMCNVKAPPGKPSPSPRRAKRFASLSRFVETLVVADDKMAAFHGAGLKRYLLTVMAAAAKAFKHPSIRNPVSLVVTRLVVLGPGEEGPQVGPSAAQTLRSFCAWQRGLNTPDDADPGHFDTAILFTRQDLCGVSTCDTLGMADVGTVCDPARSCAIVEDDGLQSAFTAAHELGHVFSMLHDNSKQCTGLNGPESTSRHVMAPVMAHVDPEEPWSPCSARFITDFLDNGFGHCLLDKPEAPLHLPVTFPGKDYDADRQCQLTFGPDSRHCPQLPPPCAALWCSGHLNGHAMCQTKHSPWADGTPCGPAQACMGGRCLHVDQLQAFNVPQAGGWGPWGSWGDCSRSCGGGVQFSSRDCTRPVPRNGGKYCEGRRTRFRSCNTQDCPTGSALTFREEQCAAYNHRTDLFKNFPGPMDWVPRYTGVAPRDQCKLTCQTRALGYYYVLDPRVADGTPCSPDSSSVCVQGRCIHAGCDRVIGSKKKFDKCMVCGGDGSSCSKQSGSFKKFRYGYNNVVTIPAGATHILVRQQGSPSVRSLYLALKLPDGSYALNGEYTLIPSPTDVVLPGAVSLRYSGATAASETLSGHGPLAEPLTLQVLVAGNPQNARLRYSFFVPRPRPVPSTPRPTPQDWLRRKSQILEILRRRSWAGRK
# [5] = target: T4, A disintegrin and metalloproteinase with thrombospondin motifs 5 (Homo sapiens) (UniProt Q9UNA0); test: Inhibition of aggrecanase-2 at 200 uM
# T4 sequence (whole entry): T2 sequence (Q9UNA0 whole entry)
IC50 [1] [µM],IC50 [2] [µM],SMILES,also measured
1.4,0.0001,CC(C)[C@@H](NS(=O)(=O)c1ccc(-c2ccc(OCc3ccc(C#N)cc3)cc2)cc1)C(=O)O,
0.76,0.0026,COC(=O)c1cccc(COc2ccc(-c3ccc(S(=O)(=O)N[C@@H](C(=O)O)C(C)C)cc3)cc2)c1,
0.31,0.0035,CC(C)[C@@H](NS(=O)(=O)c1ccc(-c2ccc(OCc3cccc(C(F)(F)F)c3)cc2)cc1)C(=O)O,IC50 [3]: 2.38 µM; inhibition [4]: 87%
,0.0056,CC(C)[C@@H](NS(=O)(=O)c1ccc(-c2ccc(OCc3ccccc3)cc2)cc1)C(=O)O,
2.6,0.0022,CC(C)[C@@H](NS(=O)(=O)c1ccc(-c2ccc(OCc3cccc(F)c3)cc2)cc1)C(=O)O,
2.7,0.012,CC(Oc1ccc(-c2ccc(S(=O)(=O)N[C@@H](C(=O)O)C(C)C)cc2)cc1)c1cccc(C(F)(F)F)c1 (stereo partly drawn),
8.5,0.0011,CC(C)[C@@H](NS(=O)(=O)c1ccc(-c2ccc(OCc3ccncc3)cc2)cc1)C(=O)O,
3.7,4,CC(C)[C@@H](NS(=O)(=O)c1ccc(-c2ccc(OCc3cccc(O)c3)cc2)cc1)C(=O)O,
30,,CC(C)[C@@H](NS(=O)(=O)c1ccc(-c2ccc(OCc3cccnc3)cc2)cc1)C(=O)O,
0.42,1.6,CC(C)[C@@H](NS(=O)(=O)c1ccc(-c2ccc(OCc3cccc(Br)c3)cc2)cc1)C(=O)O,
33,,CC(C)[C@@H](NS(=O)(=O)c1ccc(-c2ccc(OCc3ccccn3)cc2)cc1)C(=O)O,
0.4,0.0014,CC(C)[C@@H](NS(=O)(=O)c1ccc(-c2ccc(OCc3cccc(Cl)c3)cc2)cc1)C(=O)O,
2.4,0.0007,Cc1cc(COc2ccc(-c3ccc(S(=O)(=O)N[C@@H](C(=O)O)C(C)C)cc3)cc2)ccn1,
9.1,24.7,CC(C)[C@@H](NS(=O)(=O)c1ccc(-c2ccc(OCc3ccccc3C(F)(F)F)cc2)cc1)C(=O)O,
4.7,4.3,CC(C)[C@@H](NS(=O)(=O)c1ccc(-c2ccc(OCc3cccc(C(F)(F)F)n3)cc2)cc1)C(=O)O,
22,0.0027,CC(C)[C@@H](NS(=O)(=O)c1ccc(-c2ccc(OCc3cccc(C(=O)O)c3)cc2)cc1)C(=O)O,
,0.0014,CC(C)[C@@H](NS(=O)(=O)c1ccc(-c2ccc(OCc3ccc4ccccc4c3)cc2)cc1)C(=O)O,
1.9,0.002,CC(C)[C@@H](NS(=O)(=O)c1ccc(-c2ccc(OCc3ccc(C(F)(F)F)cc3)cc2)cc1)C(=O)O,
0.54,0.0014,CC(C)[C@@H](NS(=O)(=O)c1ccc(-c2ccc(OCc3cccc([N+](=O)[O-])c3)cc2)cc1)C(=O)O,
2.2,0.001,CC(C)[C@@H](NS(=O)(=O)c1ccc(-c2ccc(OCc3ccnc(C(F)(F)F)c3)cc2)cc1)C(=O)O,

# The remaining lines, values behind:
SMILES,IC50 [1] [µM],IC50 [2] [µM],also measured
CC(=O)Nc1ccc(-c2ccc(S(=O)(=O)N[C@@H](C(=O)O)C(C)C)cc2)cc1,100,,
CC(C)[C@@H](NS(=O)(=O)c1ccc(-c2cccc(CN)c2)cc1)C(=O)O,7.2,,
Cc1c(COc2ccc(-c3ccc(S(=O)(=O)N[C@@H](C(=O)O)C(C)C)cc3)cc2)oc2ccccc12,,0.004,IC50 [3]: 3.7 µM; inhibition [4]: 89%
CNC(=O)Oc1ccc(-c2ccc(S(=O)(=O)N[C@@H](C(=O)O)C(C)C)cc2)cc1,50,,
CC(C)[C@@H](NS(=O)(=O)c1ccc(-c2ccc(OS(=O)(=O)c3ccccc3)cc2)cc1)C(=O)O,8.2,,
CC(=O)N(C)Cc1ccc(-c2ccc(S(=O)(=O)N[C@@H](C(=O)O)C(C)C)cc2)cc1,> 200,,
CC(C)[C@@H](NS(=O)(=O)c1ccc(-c2cccc(CO)c2)cc1)C(=O)O,2.1,,
CC(C)[C@@H](NS(=O)(=O)c1ccc(-c2ccc(OC(=O)NCc3ccccc3)cc2)cc1)C(=O)O,25,,
CC(C)[C@@H](NS(=O)(=O)c1ccc(-c2ccc(OCc3cccc4ccccc34)cc2)cc1)C(=O)O,1.4,0.0071,
CC(C)[C@@H](NS(=O)(=O)c1ccc(-c2ccc(OCC3CCCCC3)cc2)cc1)C(=O)O,> 75,,
CC(C)[C@@H](NS(=O)(=O)c1ccc(-c2ccc(OCc3ccnc4ccccc34)cc2)cc1)C(=O)O,1,0.0052,
CC(=O)Nc1cccc(-c2ccc(S(=O)(=O)N[C@@H](C(=O)O)C(C)C)cc2)c1,20,,
CC(C)[C@@H](NS(=O)(=O)c1ccc(-c2ccc(OCc3ccc4ccccc4n3)cc2)cc1)C(=O)O,10.6,,
CC(C)[C@@H](NS(=O)(=O)c1ccc(-c2cccc(C(N)=O)c2)cc1)C(=O)O,8.4,,
CC(=O)NCc1cccc(-c2ccc(S(=O)(=O)N[C@@H](C(=O)O)C(C)C)cc2)c1,> 200,,
CC(C)[C@@H](NS(=O)(=O)c1ccc(-c2ccc(OC(N)=O)cc2)cc1)C(=O)O,4.1,,
CC(C)[C@@H](NS(=O)(=O)c1ccc(-c2ccc(CNC(=O)c3ccccc3)cc2)cc1)C(=O)O,100,,
Cc1cc(COc2ccc(-c3ccc(S(=O)(=O)N[C@@H](C(=O)O)C(C)C)cc3)cc2)c2ccccc2n1,,0.0096,
CC(C)[C@@H](NS(=O)(=O)c1ccc(-c2cccc(C#N)c2)cc1)C(=O)O,40,,
CC(=O)NCc1ccc(-c2ccc(S(=O)(=O)N[C@@H](C(=O)O)C(C)C)cc2)cc1,0.42,0.45,inhibition [5]: 73%; inhibition [4]: 20%
CC(C)[C@@H](NS(=O)(=O)c1ccc(-c2ccc(Oc3ccccc3)cc2)cc1)C(=O)O,13.2,,
CC(C)[C@@H](NS(=O)(=O)c1ccc(-c2ccc(CO)cc2)cc1)C(=O)O,15,,
CC(C)[C@@H](NS(=O)(=O)c1ccc(-c2ccc(OC(=O)Nc3ccccc3)cc2)cc1)C(=O)O,5.6,,
